One may read the IC50 as the concentration at which inhibition is half-maximal.

This note sets out measurements from patent publication US20210070748A1, “INHIBITORS OF BRUTONS TYROSINE KINASE” (Pharmacyclics LLC, priority 2015, published 2021).

Some results are limits rather than exact numbers.

What all share (format): biochemical
One test deals with LCK (Homo sapiens, UniProt P06239). Description: Inhibition of a panel of kinases, in vitro HotSpot kinase assay: LCK. The following applies: D-compounds panel data; 1 μM ATP; read-out: IC50 LCK.
A further test addresses T1, ITK (Homo sapiens, UniProt Q08881).
T1 sequence (Q08881 1-620): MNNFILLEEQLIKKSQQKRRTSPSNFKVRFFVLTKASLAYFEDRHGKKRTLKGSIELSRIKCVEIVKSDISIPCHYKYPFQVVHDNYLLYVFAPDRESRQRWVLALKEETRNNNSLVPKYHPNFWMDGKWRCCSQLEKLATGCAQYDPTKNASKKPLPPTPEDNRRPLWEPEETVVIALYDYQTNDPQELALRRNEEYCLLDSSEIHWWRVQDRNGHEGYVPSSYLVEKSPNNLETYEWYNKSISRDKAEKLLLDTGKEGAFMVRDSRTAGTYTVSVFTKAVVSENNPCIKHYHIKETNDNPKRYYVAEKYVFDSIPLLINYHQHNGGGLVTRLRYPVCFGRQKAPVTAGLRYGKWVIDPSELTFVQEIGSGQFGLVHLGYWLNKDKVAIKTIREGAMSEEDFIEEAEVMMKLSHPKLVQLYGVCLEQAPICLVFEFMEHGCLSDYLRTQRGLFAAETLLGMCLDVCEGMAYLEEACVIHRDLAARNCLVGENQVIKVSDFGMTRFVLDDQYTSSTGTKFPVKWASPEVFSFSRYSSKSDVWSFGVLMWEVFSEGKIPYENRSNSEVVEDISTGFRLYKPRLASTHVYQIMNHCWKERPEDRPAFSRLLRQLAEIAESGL
The test can be described thus: Inhibition of a panel of kinases, in vitro HotSpot kinase assay: ITK. To be noted: D-compounds panel data; 1 μM ATP. The protocol: (§1) The degree of inhibition of a panel of kinases is determined using the in vitro HotSpot kinase assay (purified enzymes, ^33P-ATP, an appropriate substrate and 1 μM ATP).

The target of another test is T2, TEC (Homo sapiens, UniProt P42680).
T2 sequence (P42680 1-631): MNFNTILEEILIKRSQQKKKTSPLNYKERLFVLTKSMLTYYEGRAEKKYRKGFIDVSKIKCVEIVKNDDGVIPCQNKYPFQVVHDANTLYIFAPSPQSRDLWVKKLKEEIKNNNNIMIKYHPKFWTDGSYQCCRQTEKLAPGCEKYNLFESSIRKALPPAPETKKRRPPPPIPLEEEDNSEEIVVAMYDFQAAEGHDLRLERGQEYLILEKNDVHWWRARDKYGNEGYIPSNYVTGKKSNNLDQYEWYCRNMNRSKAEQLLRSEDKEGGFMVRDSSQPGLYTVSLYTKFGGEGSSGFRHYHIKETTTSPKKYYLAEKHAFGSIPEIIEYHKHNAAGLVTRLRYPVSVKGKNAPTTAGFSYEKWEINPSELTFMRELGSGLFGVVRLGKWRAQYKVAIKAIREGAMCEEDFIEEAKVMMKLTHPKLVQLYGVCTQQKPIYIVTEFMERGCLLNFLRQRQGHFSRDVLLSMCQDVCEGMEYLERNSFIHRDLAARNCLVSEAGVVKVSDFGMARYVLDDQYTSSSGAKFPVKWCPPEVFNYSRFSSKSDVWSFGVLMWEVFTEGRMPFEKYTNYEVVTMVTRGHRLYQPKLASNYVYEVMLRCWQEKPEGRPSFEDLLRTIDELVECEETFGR
Description: Inhibition of a panel of kinases, in vitro HotSpot kinase assay: TEC. The following applies: D-compounds panel data; 1 μM ATP. The procedure:
as §1

LCK, sequence (P06239 whole entry): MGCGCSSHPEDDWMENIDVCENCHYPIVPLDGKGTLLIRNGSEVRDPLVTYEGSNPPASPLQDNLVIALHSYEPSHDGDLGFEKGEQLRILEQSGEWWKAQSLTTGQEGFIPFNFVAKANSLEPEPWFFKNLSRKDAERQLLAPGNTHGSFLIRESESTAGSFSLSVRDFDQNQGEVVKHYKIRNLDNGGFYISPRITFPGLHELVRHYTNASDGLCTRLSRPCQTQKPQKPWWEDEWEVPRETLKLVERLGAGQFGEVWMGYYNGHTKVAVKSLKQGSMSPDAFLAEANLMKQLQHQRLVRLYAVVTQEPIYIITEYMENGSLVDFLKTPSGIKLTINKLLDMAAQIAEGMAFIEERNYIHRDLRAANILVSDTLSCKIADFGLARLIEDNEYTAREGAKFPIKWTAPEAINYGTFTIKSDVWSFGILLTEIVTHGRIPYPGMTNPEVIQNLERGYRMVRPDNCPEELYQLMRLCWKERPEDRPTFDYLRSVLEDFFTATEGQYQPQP

As to `Cn1cc(Nc2nc(N3CCC[C@@H](NC(=O)c4ccc(C5CC5)cc4)C3)nnc2C(N)=O)cn1` [Example D-195, 3-[(3R)-3-(4-cyclopropylbenzamido)piperidin-1-yl]-5-[(1-methyl-1H-pyrazol-4-yl)amino]-1,2,4-triazine-6-carboxamide], the IC50 was 0.1 to 1 µM on LCK, 0.1 to 1 µM against ITK and 0.01 to 0.1 µM on TEC.
Turning to `Cc1ccc(C(=O)N[C@@H]2CCCN(c3cnc(C(N)=O)c(Nc4cnn(C)c4)n3)[C@@H]2C)cc1` [Example D-232, 3-[(1-methyl-1H-pyrazol-4-yl)amino]-5-[(2R,3R)-2-methyl-3-(4-methylbenzamido)piperidin-1-yl]pyrazine-2-carboxamide], the IC50 on LCK is 0.01 to 0.1 µM; on ITK, 0.1 to 1 µM; at TEC it was not above 0.01 µM.
Turning to `C[C@@H]1[C@H](NC(=O)c2ccc(C(C)(O)C(F)(F)F)cc2)CCCN1c1cnc(C(N)=O)c(Nc2cnn(C)c2)n1` (single isomer, unassigned) [Example D-213], the results for the half-inhibitory concentration (IC50) at LCK, against ITK and against TEC were 0.1 to 1 µM, 0.1 to 1 µM and not above 0.01 µM, respectively.
Consider `C[C@@H]1[C@H](NC(=O)c2ccc(S(C)(=O)=O)cc2)CCCN1c1cnc(C(N)=O)c(Nc2ccc(N3CCN(C)CC3)cc2)n1` [Example D-227, 5-[(2R,3R)-3-(4-methanesulfonylbenzamido)-2-methylpiperidin-1-yl]-3-{[4-(4-methylpiperazin-1-yl)phenyl]amino}pyrazine-2-carboxamide], for which the half-maximal inhibitory concentration (IC50) was 0.01 to 0.1 µM on LCK, 0.01 to 0.1 µM against ITK and not above 0.01 µM against TEC.
As for `C[C@@H]1[C@H](NC(=O)c2ccc(C3(O)CC3)cc2)CCCN1c1cnc(C(N)=O)c(Nc2cnn(C)c2)n1` [Example D-235, 5-[(2R,3R)-3-[4-(1-hydroxycyclopropyl)benzamido]-2-methylpiperidin-1-yl]-3-[(1-methyl-1H-pyrazol-4-yl)amino]pyrazine-2-carboxamide], the IC50 is 0.1 to 1 µM at LCK, 0.1 to 1 µM against ITK and not above 0.01 µM on TEC.
`C[C@@H]1[C@H](NC(=O)N(C)C)CCCN1c1cnc(C(N)=O)c(Nc2ccc(N3CCN(C4CCCC4)CC3)cc2)n1` [Example D-182, 3-{[4-(4-cyclopentylpiperazin-1-yl)phenyl]amino}-5-[(2R,3R)-3-[(dimethylcarbamoyl)amino]-2-methylpiperidin-1-yl]pyrazine-2-carboxamide]: the IC50 on LCK is 0.01 to 0.1 µM; on ITK it was 0.1 to 1 µM; against TEC, 0.1 to 1 µM.
Consider `Cc1ncc(Nc2nc(N3CCC[C@@H](NC(=O)c4ccc(C5CC5)cc4)[C@H]3C)cnc2C(N)=O)s1` [Example D-210, 5-[(2R,3R)-3-(4-cyclopropylbenzamido)-2-methylpiperidin-1-yl]-3-[(2-methyl-1,3-thiazol-5-yl)amino]pyrazine-2-carboxamide], for which the IC50 is 0.1 to 1 µM on LCK, 0.1 to 1 µM on ITK and not above 0.01 µM at TEC.
For the compound `C[C@@H]1[C@H](NC(=O)c2ccc3c(c2)OCCO3)CCCN1c1cnc(C(N)=O)c(Nc2cnn(C)c2)n1` [Example D-224, 5-[(2R,3R)-3-(2,3-dihydro-1,4-benzodioxine-6-amido)-2-methylpiperidin-1-yl]-3-[(1-methyl-1H-pyrazol-4-yl)amino]pyrazine-2-carboxamide], the IC50 on LCK was 0.1 to 1 µM; on ITK, 0.1 to 1 µM; at TEC, not above 0.01 µM.
In the case of `Cn1cc(Nc2nc(N3C4CCC(NC(=O)c5ccc(C6CC6)cc5)C3CC4)cnc2C(N)=O)cn1` (single isomer, unassigned) [Example D-200, 5-[2-(4-cyclopropylbenzamido)-8-azabicyclo[32.1]octan-8-yl]-3-[(1-methyl-1H-pyrazol-4-yl)amino]pyrazine-2-carboxamide], the IC50 at LCK was 1 to 10 µM; against ITK it was more than 10 µM; against TEC, 1 to 10 µM.
On to `C[C@@H]1[C@H](NC(=O)c2ccc(C(C)(O)C(F)(F)F)cc2)CCCN1c1cnc(C(N)=O)c(Nc2cnn(C)c2)n1` (single isomer, unassigned) [Example D-214], for which the figures for the IC50 at LCK, against ITK and on TEC were 0.01 to 0.1 µM, 0.1 to 1 µM and not above 0.01 µM, respectively.
